The record followed here is patent US8722849B2, “Polypeptides” (Novo Nordisk A/S, priority 2011, dated 2014).

This data set can be described thus: Assay (IV) determination of solubility. The format is physicochemical. The method, then:
ASSAY (IV)—Determination of Solubility
The polypeptide was dissolved in water at ˜500 nmol/ml and mixed 1:1 with a series of buffers (100 mM glycylglycine pH 3.0, 100 mM glycylglycine pH 4.0, 100 mM glycylglycine pH 5.0, 100 mM bistrispropane pH 6.0, 100 mM bistrispropane pH 6.5, 100 mM bistrispropane pH 7.0, 100 mM bistrispropane pH 7.5, 100 mM bistrispropane pH 8.0). After 18 hours at room temperature the samples were centrifuged and the polypeptide concentration determined by HPLC.

The mark [1] stands for this setting: pH 3, pH 3.0, read-out: Solubility pH 3.0.
The mark [2] stands for this setting: pH 4, pH 4.0, 18 hours at room temperature, Table 2, read-out: Solubility pH 4.0.
The mark [3] stands for this setting: pH 4, pH 4.0, read-out: Solubility pH 4.0.
The mark [4] stands for this setting: pH 5, pH 5.0, read-out: Solubility pH 5.0.
Where [5] appears, read: pH 6, pH 6.0, read-out: Solubility pH 6.0.
[6] abbreviates: pH 6.5, pH 6.5, read-out: Solubility pH 6.5.
Where [7] appears, read: pH 7, pH 7.0, read-out: Solubility pH 7.0.
Setting [8] is: pH 7.5, pH 7.5, read-out: Solubility pH 7.5.
The mark [9] stands for this setting: pH 8, pH 8.0, read-out: Solubility pH 8.0.
[10] abbreviates: pH 7, pH 7.0, 18 hours at room temperature, Table 3, read-out: Solubility pH 7.0.

Converted amounts (≈) assume the structure as drawn. Read-outs that look alike come from different tables or passages of the source. Starred links: 1 amine or outer side, 2 acyl side, 3 side chain; linkers in the order of their positions; H or OH if unused. Positions of bridges follow the written chain, without caps; N, C: chain ends. Residues, ends and D or L forms follow the SMILES beside them. Groups on a side chain read outwards from the residue. *: point of attachment. C20 diacid = O=C(O)CCCCCCCCCCCCCCCCCCC(=O)*; γGlu = O=C(O)[C@H](CCC(=O)[*:2])N[*:1]; AEEA = NCCOCCOCC(=O)O

As to `CC[C@H](C)[C@H](NC(=O)[C@@H]1CCCN1C(=O)CNC(=O)[C@H](Cc1ccccc1)NC(=O)[C@H](CC(N)=O)NC(=O)[C@H](CO)NC(=O)[C@H](CO)NC(=O)[C@H](CO)NC(=O)[C@H](Cc1c[nH]cn1)NC(=O)[C@H](Cc1c[nH]cn1)NC(=O)[C@H](CC(C)C)NC(=O)[C@H](Cc1ccccc1)NC(=O)[C@H](CCC(=O)O)NC(=O)[C@H](C)NC(=O)[C@H](CC(C)C)NC(=O)[C@H](CCCNC(=N)N)NC(=O)[C@H](CCC(N)=O)NC(=O)[C@@H](NC(=O)[C@H](C)NC(=O)[C@@H]1CSSC[C@H](NC(=O)[C@H](CCCCN)NC(=O)COCCOCCNC(=O)COCCOCCNC(=O)CC[C@H](NC(=O)CCCCCCCCCCCCCCCCCCC(=O)O)C(=O)O)C(=O)N[C@@H](CC(N)=O)C(=O)N[C@@H]([C@@H](C)O)C(=O)N[C@@H](C)C(=O)N[C@@H]([C@@H](C)O)C(=O)N1)[C@@H](C)O)C(=O)N[C@@H](CC(C)C)C(=O)N1CCC[C@H]1C(=O)N1CCC[C@H]1C(=O)N[C@H](C(=O)N[C@@H](CC(N)=O)C(=O)N[C@H](C(=O)NCC(=O)N[C@@H](CO)C(=O)N[C@@H](Cc1c[nH]cn1)C(=O)N[C@H](C(=O)N[C@@H](Cc1ccc(O)cc1)C(N)=O)[C@@H](C)O)C(C)C)[C@@H](C)O` [Example 118, N-alpha-[2-(2-{2-[2-(2-{2-[(S)-4-Carboxy-4-(19-carboxyheptadecanoylamino)butyrylamino]ethoxy}ethoxy)acetylamino]ethoxy}ethoxy)acetyl]-[Glu14,His17,Ser21,His35]-pramlintide] ({C20 diacid-γGlu-AEEA-AEEA}-KCNTATCATQRLAEFLHHSSSNFGPILPPTNVGSHTY-NH2; disulfide 2-7), the solubility (commonly the concentration that dissolves in the medium under given conditions) under setting [1] was greater than 200 µM; the solubility under setting [2] was greater than 200 µM; the solubility under setting [3] is greater than 200 µM; the solubility under setting [4] is greater than 200 µM; the solubility under setting [5] was greater than 200 µM; the solubility under setting [6] stood at 105 µM (≈ 498 µg/mL). Further, the solubility under setting [7] was found to be 37 µM (≈ 175 µg/mL), the solubility under setting [8] was 57 µM (≈ 270 µg/mL) and the solubility under setting [9] came out at 117 µM (≈ 555 µg/mL).
Take `CC[C@H](C)[C@H](NC(=O)[C@@H]1CCCN1C(=O)CNC(=O)[C@H](Cc1ccccc1)NC(=O)[C@H](CC(N)=O)NC(=O)[C@H](CCCCNC(=O)COCCOCCNC(=O)COCCOCCNC(=O)CC[C@H](NC(=O)CCCCCCCCCCCCCCCCCCC(=O)O)C(=O)O)NC(=O)[C@H](CO)NC(=O)[C@H](CO)NC(=O)[C@H](CCCNC(=N)N)NC(=O)[C@@H](NC(=O)[C@H](CC(C)C)NC(=O)[C@H](Cc1ccccc1)NC(=O)[C@H](CCC(=O)O)NC(=O)[C@H](C)NC(=O)[C@H](CC(C)C)NC(=O)[C@H](CCCNC(=N)N)NC(=O)[C@H](CCC(N)=O)NC(=O)[C@@H](NC(=O)[C@H](C)NC(=O)[C@@H]1CSSC[C@H](NC(=O)[C@@H](N)CCCCN)C(=O)N[C@@H](CC(N)=O)C(=O)N[C@@H]([C@@H](C)O)C(=O)N[C@@H](C)C(=O)N[C@@H]([C@@H](C)O)C(=O)N1)[C@@H](C)O)C(C)C)C(=O)N[C@@H](CC(C)C)C(=O)N[C@@H](CO)C(=O)N[C@@H](CCCNC(=N)N)C(=O)N[C@H](C(=O)N[C@@H](CC(N)=O)C(=O)N[C@H](C(=O)NCC(=O)N[C@@H](CO)C(=O)N[C@@H](CCCNC(=N)N)C(=O)N[C@H](C(=O)N[C@@H](Cc1ccc(O)cc1)C(N)=O)[C@@H](C)O)C(C)C)[C@@H](C)O` [Example 150, N-epsilon21-[2-(2-{2-[2-(2-{2-[(S)-4-Carboxy-4-(19-carboxyheptadecanoylamino)butyrylamino]ethoxy}ethoxy)acetylamino]ethoxy}ethoxy)acetyl]-[Glu14,Arg18,Lys21,Ser28,Arg29,Arg35]-pramlintide] (H-KCNTATCATQRLAEFLVRSSK([AEEA-AEEA-γGlu-C20 diacid])NFGPILSRTNVGSRTY-NH2; disulfide 2-7): the solubility runs as follows: under setting [1], greater than 200 µM; under setting [2], greater than 200 µM; under setting [3], greater than 200 µM; under setting [4], greater than 200 µM; under setting [5], greater than 200 µM; under setting [6], 163 µM (≈ 788 µg/mL). Further, the solubility was greater than 200 µM under setting [10]; greater than 200 µM (pH 7, pH 7.0, Table 8, read-out: Solubility pH 7.0); greater than 200 µM (pH 7, pH 7.0, Table 9, read-out: Solubility pH 7.0); greater than 200 µM under setting [7]; greater than 200 µM (pH 7.5, pH 7.5, Table 9, read-out: Solubility pH 7.5); greater than 200 µM under setting [8]. Moreover, the solubility under setting [9] is greater than 200 µM.
For the compound `CC[C@H](C)[C@H](NC(=O)[C@@H]1CCCN1C(=O)CNC(=O)[C@H](Cc1ccccc1)NC(=O)[C@H](CC(N)=O)NC(=O)[C@H](CC(N)=O)NC(=O)[C@H](CO)NC(=O)[C@H](CO)NC(=O)[C@H](Cc1c[nH]cn1)NC(=O)[C@H](CCCNC(=N)N)NC(=O)[C@H](CC(C)C)NC(=O)[C@H](Cc1ccccc1)NC(=O)[C@H](CCC(=O)O)NC(=O)[C@H](C)NC(=O)[C@H](CC(C)C)NC(=O)[C@H](CCCNC(=N)N)NC(=O)[C@H](CCC(N)=O)NC(=O)[C@@H](NC(=O)[C@H](C)NC(=O)[C@@H]1CSSC[C@H](NC(=O)[C@@H](N)CCCCNC(=O)CC[C@H](NC(=O)CCCCCCCCCCCCCCCCCCC(=O)O)C(=O)O)C(=O)N[C@@H](CC(N)=O)C(=O)N[C@@H]([C@@H](C)O)C(=O)N[C@@H](C)C(=O)N[C@@H]([C@@H](C)O)C(=O)N1)[C@@H](C)O)C(=O)N[C@@H](CC(C)C)C(=O)N1CCC[C@H]1C(=O)N1CCC[C@H]1C(=O)N[C@H](C(=O)N[C@@H](CC(N)=O)C(=O)N[C@H](C(=O)NCC(=O)N[C@@H](CO)C(=O)N[C@@H](CC(N)=O)C(=O)N[C@H](C(=O)N1CCC[C@H]1C(N)=O)[C@@H](C)O)C(C)C)[C@@H](C)O` [Example 177, N-epsilon1-[(S)-4-Carboxy-4-(19-carboxynonadecanoylamino)butyryl]-[Glu14,Arg17,Pro37]-pramlintide], the solubility under setting [1] was greater than 200 µM; the solubility under setting [2] was greater than 200 µM; the solubility under setting [3] is greater than 200 µM; the solubility under setting [4] was greater than 200 µM; the solubility under setting [5] was greater than 200 µM; the solubility under setting [6] is greater than 200 µM. For the same compound, the solubility under setting [10] was greater than 200 µM, the solubility under setting [7] was greater than 200 µM, the solubility under setting [8] was greater than 200 µM and the solubility under setting [9] is greater than 200 µM.
For the compound `CC[C@H](C)[C@H](NC(=O)[C@@H]1CCCN1C(=O)CNC(=O)[C@H](Cc1ccccc1)NC(=O)[C@H](CC(N)=O)NC(=O)[C@H](CCCCNC(=O)COCCOCCNC(=O)COCCOCCNC(=O)CC[C@H](NC(=O)CCCCCCCCCCCCCCCCCCC(=O)O)C(=O)O)NC(=O)[C@H](CO)NC(=O)[C@H](CO)NC(=O)[C@H](Cc1c[nH]cn1)NC(=O)[C@@H](NC(=O)[C@H](CC(C)C)NC(=O)[C@H](Cc1ccccc1)NC(=O)[C@H](CCC(=O)O)NC(=O)[C@H](C)NC(=O)[C@H](CC(C)C)NC(=O)[C@H](CCCNC(=N)N)NC(=O)[C@H](CCC(N)=O)NC(=O)[C@@H](NC(=O)[C@H](C)NC(=O)[C@@H]1CSSC[C@H](NC(=O)[C@@H](N)CCCCN)C(=O)N[C@@H](CC(N)=O)C(=O)N[C@@H]([C@@H](C)O)C(=O)N[C@@H](C)C(=O)N[C@@H]([C@@H](C)O)C(=O)N1)[C@@H](C)O)C(C)C)C(=O)N[C@@H](CC(C)C)C(=O)N[C@@H](CO)C(=O)N[C@@H](CO)C(=O)N[C@H](C(=O)N[C@@H](CC(N)=O)C(=O)N[C@H](C(=O)NCC(=O)N[C@@H](CO)C(=O)N[C@@H](Cc1c[nH]cn1)C(=O)N[C@H](C(=O)N[C@@H](Cc1ccc(O)cc1)C(N)=O)[C@@H](C)O)C(C)C)[C@@H](C)O` [Example 131, N-epsilon21-[2-(2-{2-[2-(2-{2-[(S)-4-Carboxy-4-(19-carboxyheptadecanoylamino)butyrylamino]ethoxy}ethoxy)acetylamino]ethoxy}ethoxy)acetyl]-[Glu14,Lys21,Ser28,Ser29,His35]-pramlintide] (H-KCNTATCATQRLAEFLVHSSK([AEEA-AEEA-γGlu-C20 diacid])NFGPILSSTNVGSHTY-NH2; disulfide 2-7), the solubility under setting [1] was greater than 200 µM; the solubility under setting [2] was found to be 172 µM (≈ 813 µg/mL); the solubility under setting [3] was 172 µM (≈ 813 µg/mL); the solubility under setting [4] came out at 150 µM (≈ 709 µg/mL); the solubility under setting [5] was 25 µM (≈ 118 µg/mL); the solubility under setting [6] came to 27 µM (≈ 128 µg/mL). Further, the solubility reads like this: under setting [7], 6 µM (≈ 28.4 µg/mL); under setting [8], 4 µM (≈ 18.9 µg/mL); under setting [9], 3 µM (≈ 14.2 µg/mL).
